# According to patent publication US20240132478A1, “COCRYSTAL” (Syndesi Therapeutics SA, priority 2020, published 2024):
# Entries after “also recorded” stand apart in the source; their conditions may differ. Read-outs that look alike come from different tables or passages of the source.
# Legend:
# Assay type in all cases: physicochemical
# [1] = Gravimetric Vapour Sorption (GVS) moisture sorption isotherm
# Procedure: Sorption isotherms were obtained using a SMS DVS Intrinsic moisture sorption analyser, controlled by DVS Intrinsic Control software. The sample temperature was maintained at 25° C. by the instrument controls. The humidity was controlled by mixing streams of dry and wet nitrogen, with a total flow rate of 200 ml/min. The relative humidity was measured by a calibrated Rotronic probe (dynamic range of 1.0-100% RH), located near the sample. The weight change, (mass relaxation) of the sample as a function of % RH was constantly monitored by a microbalance (accuracy ±0.005 mg). Typically, 5-30 mg of sample was placed in a tared mesh stainless steel basket under ambient conditions. The sample was loaded and unloaded at 40% RH and 25° C. (typical room conditions). A moisture sorption isotherm was performed as outlined below (2 scans per complete cycle). The standard isotherm was performed at 25° C. at 10% RH intervals over a 0-90% RH range. Typically, a double cycle (4 scans) was carried out. Data analysis was carried out within Microsoft Excel using the DVS Analysis Suite.
# The sample was recovered after completion of the isotherm and re-analysed by XRPD.
# [2] = Storage stability at elevated temperature and humidity (XRPD and HPLC purity after storage)
# [3] = Differential Scanning Calorimetry (DSC); conditions: * = multiple thermal events
# Procedure: TA Instruments Q2000: DSC data were collected on a TA Instruments Q2000 equipped with a 50 position auto sampler. Typically, 0.5 3 mg of each sample, in a pin-holed aluminium pan, was heated at 10° C./min from 25° C. to 235° C. A purge of dry nitrogen at 50 mlmL/min was maintained over the sample. The instrument control software was Advantage for Q Series and Thermal Advantage and the data were analysed using Universal Analysis or TRIOS.
# TA Instruments Discovery DSC: DSC data were also collected on a TA Instruments Discovery DSC equipped with a 50 position auto-sampler. Typically, 0.5 3 mg of each sample, in a pin-holed aluminium pan, was heated at 10° C./min from 25° C. to 235° C. A purge of dry nitrogen at 50 mlmL/min was maintained over the sample. The instrument control software was TRIOS and the data were analysed using TRIOS or Universal Analysis.
# [4] = Solubility assessment in solvents (visual); conditions: for solubility: read-out: Observations from solubility assessment
# Procedure: API (25 mg) was dispensed to a PLC vial with a magnetic stirrer. At room temperature an aliquot of solvent was added (5 vol.=125 μL) and stirred at 25° C. for at least 5 minutes. A visual assessment was made. Solutions were held at 25° C. and suspensions were placed at 50° C. with stirring for at least 5 minutes. A visual assessment was made and if a suspension was observed, further aliquots of solvent were added at 25° C. and the above steps repeated until a maximum of 50 volumes were added (Table 7).
# [5] = Storage stability at elevated temperature and humidity (XRPD and HPLC purity after storage); remark: listed apart in the source
# Procedure: Bruker AXS D8 Advance: XRPD diffractograms were collected on a Bruker D8 diffractometer using Cu Kα radiation (40 kV, 40 mA) and a θ-2θ goniometer fitted with a Ge monochromator. The incident beam passes through a 2.0 mm divergence slit followed by a 0.2 mm anti-scatter slit and knife edge. The diffracted beam passes through an 8.0 mm receiving slit with 2.5° Soller slits followed by the Lynxeye Detector. The software used for data collection and analysis was Diffrac Plus XRD Commander and Diffrac Plus EVA respectively. Samples were run under ambient conditions as flat plate specimens using powder as received. The sample was prepared on a polished, zero-background (510) silicon wafer by gently pressing onto the flat surface or packed into a cut cavity. The sample was rotated in its own plane. The details of the data collection method are: • Angular range: 2 to 42° 2θ • Step size: 0.05° 2θ • Collection time: 0.5 s/step (total collection time: 6.40 min)
# Purity analysis was performed on an Agilent Ip 100/Infinity 111260 series system equipped with a diode array detector and using OpenLAB software. The full method details are provided below:
# The three potential cocrystals were characterised using DSC, 1H NMR, TGA and by evaluating their stability with XRPD after 7 or 8 days of being stored at 40° C./75% RH. All three cocrystals were unchanged by XRPD after storage at 40° C./75% RH and none had significant amounts of solvent present (Table 28). The 4 HBA cocrystal appeared to have a similar melt to the starting material (ca. 85° C.). […] All initially appeared to have a 1:1 stoichiometry. […]
compound,measurement,setting,value
"O=C1C[C@H](c2cc(F)c(F)c(F)c2)CN1Cn1ncnc1Cl [API, (4R)-1-[(5-chloro-1H-1,2,4-triazol-1-yl)methyl]-4-(3,4,5-trifluorophenyl)pyrrolidin-2-one]",Hygroscopicity,"[1]; in words, by GVS",not hygroscopic
same,XRPD post-GVS,[1]; sample re-analysed by XRPD after isotherm,no form change observed; also recorded: Unchanged by XRPD post-GVS
same,XRPD after storage,[2]; 25° C./97% RH,XRPD - Unchanged
same,Purity after storage,"[2]; 25° C./97% RH, 7 days","Purity - 7 days: 99.5%, 14 days: 99.5%"
same,Purity after storage,"[2]; 25° C./97% RH, 14 days","Purity - 7 days: 99.5%, 14 days: 99.5%"
same,Purity after storage,"[2]; 40° C./75% RH, 7 days","Purity - 7 days: 99.5%, 14 days: 99.5% XRPD -"
same,Purity after storage,"[2]; 40° C./75% RH, 14 days","Purity - 7 days: 99.5%, 14 days: 99.5% XRPD -"
same,Stability after storage,[2]; 14 days at 25° C./75% RH,stable
same,Stability after storage,[2]; 14 days at 40° C./97% RH,stable
same,Melting point (onset),[3],85.3 °C
same,solubility,"[4]; 1,4-dioxane, 25 °C, organic solvent or mixture, thermodynamic from solid, 1,4-Dioxane, 5 vol, 25° C.",> 200 mg/mL
same,solubility,"[4]; 2-methyl-1-propanol, 25 °C, organic solvent or mixture, thermodynamic from solid, 2-methyl-1-propanol, 5 vol, 25° C.",< 200 mg/mL
same,solubility,"[4]; 2-methyl-1-propanol, 50 °C, organic solvent or mixture, thermodynamic from solid, 2-methyl-1-propanol, 5 vol, 50° C.",> 200 mg/mL
same,solubility,"[4]; 2-propanol, 25 °C, organic solvent or mixture, thermodynamic from solid, 2-Propanol, 5 vol, 25° C.",< 200 mg/mL
same,solubility,"[4]; 2-propanol, 50 °C, organic solvent or mixture, thermodynamic from solid, 2-Propanol, 5 vol, 50° C.",> 200 mg/mL
same,solubility,"[4]; IPA:water (9:1 v/v), 25 °C, organic solvent or mixture, thermodynamic from solid, IPA:Water (9:1 v/v), 5 vol, 25° C.",< 200 mg/mL
same,solubility,"[4]; IPA:water (9:1 v/v), 50 °C, organic solvent or mixture, thermodynamic from solid, IPA:Water (9:1 v/v), 5 vol, 50° C.",> 200 mg/mL
same,solubility,"[4]; IPAC, 25 °C, organic solvent or mixture, thermodynamic from solid, IPAC, 5 vol, 25° C.",> 200 mg/mL
same,solubility,"[4]; MEK, 25 °C, organic solvent or mixture, thermodynamic from solid, MEK, 5 vol, 25° C.",> 200 mg/mL
same,solubility,"[4]; MIBK, 25 °C, organic solvent or mixture, thermodynamic from solid, MIBK, 5 vol, 25° C.",> 200 mg/mL
same,solubility,"[4]; TBME, 25 °C, organic solvent or mixture, thermodynamic from solid, TBME, 5 vol, 25° C.",< 200 mg/mL
same,solubility,"[4]; TBME, 25 °C, organic solvent or mixture, thermodynamic from solid, TBME, 10 vol, 25° C.",< 100 mg/mL
same,solubility,"[4]; TBME, 50 °C, organic solvent or mixture, thermodynamic from solid, TBME, 5 vol, 50° C.",< 200 mg/mL
same,solubility,"[4]; TBME, 50 °C, organic solvent or mixture, thermodynamic from solid, TBME, 10 vol, 50° C.",> 100 mg/mL
same,solubility,"[4]; acetone, 25 °C, organic solvent or mixture, thermodynamic from solid, Acetone, 5 vol, 25° C.",> 200 mg/mL
same,solubility,"[4]; acetone:water (95:5 v/v), 25 °C, organic solvent or mixture, thermodynamic from solid, Acetone:water (95:5 v/v), 5 vol, 25° C.",< 200 mg/mL
same,solubility,"[4]; acetone:water (95:5 v/v), 50 °C, organic solvent or mixture, thermodynamic from solid, Acetone:water (95:5 v/v), 5 vol, 50° C.",> 200 mg/mL
same,solubility,"[4]; acetonitrile, 25 °C, organic solvent or mixture, thermodynamic from solid, Acetonitrile, 5 vol, 25° C.",> 200 mg/mL
same,solubility,"[4]; diethyl ether, 25 °C, organic solvent or mixture, thermodynamic from solid, Diethyl ether, 5 vol, 25° C.",< 200 mg/mL
same,solubility,"[4]; diethyl ether, 25 °C, organic solvent or mixture, thermodynamic from solid, Diethyl ether, 10 vol, 25° C.",< 100 mg/mL
same,solubility,"[4]; diethyl ether, 25 °C, organic solvent or mixture, thermodynamic from solid, Diethyl ether, 50 vol, 25° C.",> 20 mg/mL
same,solubility,"[4]; ethanol, 25 °C, organic solvent or mixture, thermodynamic from solid, Ethanol, 5 vol, 25° C.",< 200 mg/mL
same,solubility,"[4]; ethanol, 50 °C, organic solvent or mixture, thermodynamic from solid, Ethanol, 5 vol, 50° C.",> 200 mg/mL
same,solubility,"[4]; ethanol:water (9:1 v/v), 25 °C, organic solvent or mixture, thermodynamic from solid, Ethanol:Water (9:1 v/v), 5 vol, 25° C.",> 200 mg/mL
same,solubility,"[4]; ethyl acetate, 25 °C, organic solvent or mixture, thermodynamic from solid, Ethyl acetate, 5 vol, 25° C.",> 200 mg/mL
same,Solubility in organic solvents,"[4]; most of the organic solvents tested, water, diethyl ether and n-heptane are the exceptions",good solubility
same,solubility,"[4]; n-heptane, 25 °C, organic solvent or mixture, thermodynamic from solid, n-heptane, 5 vol, 25° C.",< 200 mg/mL
same,solubility,"[4]; n-heptane, 50 °C, organic solvent or mixture, thermodynamic from solid, n-heptane, 5 vol, 50° C.",< 200 mg/mL
same,solubility,"[4]; n-heptane, 50 °C, organic solvent or mixture, thermodynamic from solid, n-heptane, 50 vol, 50° C.",< 20 mg/mL
same,solubility,"[4]; nitromethane, 25 °C, organic solvent or mixture, thermodynamic from solid, Nitromethane, 5 vol, 25° C.",> 200 mg/mL
same,solubility,"[4]; tetrahydrofuran, 25 °C, organic solvent or mixture, thermodynamic from solid, Tetrahydrofuran, 5 vol, 25° C.",> 200 mg/mL
same,solubility,"[4]; toluene, 25 °C, organic solvent or mixture, thermodynamic from solid, Toluene, 5 vol, 25° C.",< 200 mg/mL
same,solubility,"[4]; toluene, 50 °C, organic solvent or mixture, thermodynamic from solid, Toluene, 5 vol, 50° C.",> 200 mg/mL
same,solubility,"[4]; water, 25 °C, water, thermodynamic from solid, Water, 5 vol, 25° C.",< 200 mg/mL
same,solubility,"[4]; water, 25 °C, water, thermodynamic from solid, Water, 10 vol, 25° C.",< 100 mg/mL
same,solubility,"[4]; water, 25 °C, water, thermodynamic from solid, Water, 50 vol, 25° C.",< 20 mg/mL
same,solubility,"[4]; water, 50 °C, water, thermodynamic from solid, Water, 5 vol, 50° C.",< 200 mg/mL
same,solubility,"[4]; water, 50 °C, water, thermodynamic from solid, Water, 10 vol, 50° C.",< 100 mg/mL
same,solubility,"[4]; water, 50 °C, water, thermodynamic from solid, Water, 50 vol, 50° C.",< 20 mg/mL
same,XRPD after storage,[5]; 40° C./75% RH,Unchanged
same,Stability at 25° C./97% RH and 40° C./75% RH,[5]; XRPD after storage,"Stable,"
